Patent publication US20250325531A1, “TREATMENT OF SYSTOLIC DYSFUNCTION” (MyoKardia, Inc., priority 2024, published 2025)

Key:
healthy subjects = experiment: Transthoracic echocardiography (TTE) pharmacodynamics after single ascending doses in healthy volunteers; type: in vivo, human; conditions: for SET, mean (SD) increase from Baseline: 1.5 to 2 hours postdose
Method: To assess pharmacodynamic effects, serial echocardiograms were performed. The sonographers used in the study completed Echo protocol training and submitted an example of a study for evaluation to the core laboratory for evaluation. The core TTE lab certified that the sonographer was able to perform the TTEs at a level satisfactory for obtaining the required protocol data.
These criteria were chosen to prevent subjects from having prolongation of SET that might lead to myocardial ischemia. Dose escalation stopping criteria also included observation of a Baseline-corrected, group mean relative increase of >20% in any 2 sequential TTE assessments in at least 2 measures of LV contractility: LVOT-VTI, LVFS, LVEF, or LVSV in subjects receiving Compound I. Placebo-controlled evaluation may have been considered. For this comparison, subjects who received placebo may have been pooled across cohorts.
PK and PD data were collected as described herein. […] Changes from Baseline at each postbaseline timepoint were assessed.
SET as determined by TTE was assessed using summary statistics. Observations and change from Baseline were summarized by treatment at each time point and the maximum change from Baseline determined for each subject. In addition, categorical analyses were performed on the number of subjects with a change from Baseline >50 msec and the number of subjects with a change from Baseline >75 msec in 1 or any 2 sequential TTE assessments. The relationship to Compound I plasma concentration to SET was explored. An analysis of SET placebo-adjusted change from Baseline was also performed.
As the Cmax occurred at between 4 and 6 hours in most of the subjects, the TTE obtained at 6 hours postdose was considered the best timepoint to explore the relationship between concentration and pharmacological effect. TTEs obtained at 1.5 and 3 hours after dosing were before the Cmax and at 9 hours were after the peak Cmax. Based on the preclinical data, it was considered unlikely that there would be a prolonged lag between the Cmax and peak pharmacological effect. As the exposure after the administration of the 350 mg and 525 mg doses were very similar, it was decided to not only present the results from these groups separately, but also to combine the data from these groups. By combining the data from the 2 groups, the number of subjects dosed was increased from 6 to 12, thus increasing the power to observe a statistically significant change from Baseline in the TTE parameters of interest.

healthy volunteers = experiment: Safety and tolerability in food effect study, healthy volunteers; type: in vivo, human; conditions: 200 mg
Method: ECG was performed as described in Example 1. The following intervals were measured: RR, PR, QRS, and QT. Heart rate (HR) was calculated as […] (with RR expressed in msec) and rounded to the nearest integer. Each individual ECG QT value was corrected for HR. The measured QT data was corrected for HR using the Fridericia method (QTcF) as per the following formulae/method (with QT, RR and QTc expressed in ms): […]
The Investigator or designee monitored the continuous ECG telemetry data and correlated the finding(s) with any other clinical findings, study participant's medical history, study participant's clinical status and laboratory data to determine the clinical importance of the finding.
Serum troponin-I concentrations were determined as described in Example 1. Abnormal and/or rising troponin values (as per Investigator's judgment and taking into account potential Baseline troponin elevation) led to the subject being clinically evaluated for possible myocardial ischemia. […] The entire clinical context would be evaluated (e.g., signs, symptoms, new ECG changes, new troponin, and CK-MB abnormalities) and correlated with any other relevant clinical findings, the subject's medical history, and laboratory data to determine the clinical significance of the findings.

[1] = 6 hours postdose, plasma concentration bin 0-1000 ng/mL (n = 29)
[2] = 6 hours postdose, plasma concentration bin 1001-2000 ng/mL (n = 9)
[3] = 6 hours postdose, plasma concentration bin >2000 ng/mL (n = 10)
[4] = plasma concentrations >2000 ng/ml, 6 hours postdose

Cn1cc(S(=O)(=O)[C@@](C)(F)C2CCN(C(=O)Nc3ccon3)CC2)c(C(F)F)n1 [Compound I, (R)-4-(1-((3-(difluoromethyl)-1-methyl-1H-pyrazol-4-yl)sulfonyl)-1-fluoroethyl)-N-(isoxazol-3-yl) piperidine-1-carboxamide]
SET, mean (SD) increase from Baseline (healthy subjects; 350 mg and 525 mg combined): 18.0 (19.5) msec | SET, mean (SD) increase from Baseline (healthy subjects; 350 mg): 19.2 (20.5) msec | DBP, placebo-corrected LS mean difference of change from Baseline (healthy subjects; [1]): 2.277 mm Hg | E/A ratio, placebo-corrected LS mean difference of change from Baseline (healthy subjects; [1]): 0.150 | HR, placebo-corrected LS mean difference of change from Baseline (healthy subjects; [1]): −1.070 bpm | LVEDD, placebo-corrected LS mean difference of change from Baseline (healthy subjects; [1]): −0.014 cm | LVESD, placebo-corrected LS mean difference of change from Baseline (healthy subjects; [1]): 0.025 cm | LVFS, placebo-corrected LS mean difference of change from Baseline (healthy subjects; [1]): −0.560% | MPI, placebo-corrected LS mean difference of change from Baseline (healthy subjects; [1]): −0.007 | SBP, placebo-corrected LS mean difference of change from Baseline (healthy subjects; [1]): −0.623 mm Hg | DBP, placebo-corrected LS mean difference of change from Baseline (healthy subjects; [2]): 2.937 mm Hg | HR, placebo-corrected LS mean difference of change from Baseline (healthy subjects; [2]): 0.336 bpm | LVEDD, placebo-corrected LS mean difference of change from Baseline (healthy subjects; [2]): −0.041 cm | LVEDV, placebo-corrected LS mean difference of change from Baseline (healthy subjects; [2]): -6.100 mL | MPI, placebo-corrected LS mean difference of change from Baseline (healthy subjects; [2]): −0.021 | SBP, placebo-corrected LS mean difference of change from Baseline (healthy subjects; [2]): 1.132 mm Hg | DBP, placebo-corrected LS mean difference of change from Baseline (healthy subjects; [3]): 1.540 mm Hg | E/A ratio, placebo-corrected LS mean difference of change from Baseline (healthy subjects; [3]): −0.047 | E/e′(lateral), placebo-corrected LS mean difference of change from Baseline (healthy subjects; [3]): −0.063 | HR, placebo-corrected LS mean difference of change from Baseline (healthy subjects; [3]): 2.871 bpm | MPI, placebo-corrected LS mean difference of change from Baseline (healthy subjects; [3]): 0.033 | SBP, placebo-corrected LS mean difference of change from Baseline (healthy subjects; [3]): −1.572 mm Hg | plasma concentrations at which PD effects were discernable (healthy subjects; echocardiographic measures): ≥ 1000 ng/mL | IVRT (mitral inflow doppler), placebo-corrected LS mean difference (healthy subjects; [4]): 12.0 ms | stroke volume, placebo-corrected LS mean difference±SE (healthy subjects; [4]): 8.20 ± 3.99 mL | abnormal ECG results (healthy volunteers; fasted state): 3 (30.0%) n (%) | drug-related headache, subjects (healthy volunteers; fasted state): 3 subjects | headache, subjects (healthy volunteers; fasted state): 4 subjects | Cardiac disorders, subjects (healthy volunteers; fasted state (1 sinus tachycardia and 1 ventricular tachycardia)): 2 subjects | abnormal ECG results (healthy volunteers; fed state): 2 (20.0%) n (%) | drug-related headache, subjects (healthy volunteers; fed state): 1 subject | headache, subjects (healthy volunteers; fed state): 1 subject | Cardiac disorders, subjects (healthy volunteers; fed state (palpitations)): 1 subject
